Data: patent publication US20040265847A1, “Method for treating Alzheimer's disease” (priority 1991, published 2004)

Experiments:
[1] = system: human brain membrane-derived APP; test: trypsin digestion of human brain membrane-derived APP, Western blot with 22C11; assay type: biochemical
Description: The proteolytic activity of trypsin (Boehringer, Mannheim) was studied to determine whether it was modulated by a range of doses of heparin (Sigma) and ZnCl2. […] Western blots for APP using the APP binding monoclonal antibody 22C11 were used to monitor the progression of the proteolytic reaction and to detect breakdown products.

[2] = molecular target: T1, partially purified human brain APP (Homo sapiens, UniProt P05067); test: partially purified brain APP binding to heparin-Sepharose, NaCl gradient elution
T1 construct: from tissue; host or cells: human brain membrane extract
T1 sequence (P05067 18-770): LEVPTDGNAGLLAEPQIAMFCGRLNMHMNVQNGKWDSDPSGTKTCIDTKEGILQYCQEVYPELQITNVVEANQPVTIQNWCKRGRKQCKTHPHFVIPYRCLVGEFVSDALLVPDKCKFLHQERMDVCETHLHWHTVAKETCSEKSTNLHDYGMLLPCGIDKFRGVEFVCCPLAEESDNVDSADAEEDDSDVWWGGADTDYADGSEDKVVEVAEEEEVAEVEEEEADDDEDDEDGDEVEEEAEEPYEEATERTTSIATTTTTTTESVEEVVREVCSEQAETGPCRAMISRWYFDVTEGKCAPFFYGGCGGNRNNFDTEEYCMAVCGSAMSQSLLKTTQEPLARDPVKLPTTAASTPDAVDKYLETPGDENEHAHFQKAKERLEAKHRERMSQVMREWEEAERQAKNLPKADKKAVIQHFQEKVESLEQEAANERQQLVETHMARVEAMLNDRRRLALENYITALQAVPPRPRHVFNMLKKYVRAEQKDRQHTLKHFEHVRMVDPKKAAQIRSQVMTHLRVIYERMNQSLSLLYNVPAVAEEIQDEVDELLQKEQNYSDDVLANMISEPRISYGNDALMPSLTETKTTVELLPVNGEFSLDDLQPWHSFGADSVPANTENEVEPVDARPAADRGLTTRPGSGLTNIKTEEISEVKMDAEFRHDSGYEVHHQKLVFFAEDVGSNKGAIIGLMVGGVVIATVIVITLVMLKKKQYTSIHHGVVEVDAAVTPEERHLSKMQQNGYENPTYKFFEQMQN
Experimental: APP binding to heparin-Sepharose was also studied using partially purified APP preparations derived from human brain membranes (according to the method of Moir et al, 1992) or from human serum. Washed brain membrane extract or human serum was adjusted to a NaCl concentration of 350 mM and applied to a Q-Sepharose column (5 cm×5 cm), washed with 350 mM NaCl, 50 mM Tris-Hcl, pH 7.4 (250 ml [×2 for brain membrane extract]) and eluted with 1 M NaCl 50 mM Tris-HCl, pH 7.4 (200 ml at 5 ml/min). This procedure causes an 80-fold enrichment of APP in the peak protein fractions, which are then pooled (Moir et al, 1992). The eluate (20 ml) was desalted into 25 mM Tris, pH 7.4 (30 ml) using a G25 Sephadex column (2.6 cm×40 cm). 15 ml of the product was adjusted to 50 μM Zn^2+ with 2 mM ZnCl2, 50 mM Tris-Hcl, pH 7.4 and the other 15 ml was adjusted to the same volume with 50 mM Tris-HCl, pH 7.4. 10 ml of the deslated Q-Sepharose eluate, containing 6.7 mg protein, was applied to heparin-Sepharose (1.6 cm×5 cm) at 0.35 ml/min, washed with 100 ml of loading buffer, and eluted by a 0 to 1500 mM NaCl gradient (±50 μM Zn^2+) in 52.5 ml at a flow rate of 0.35 ml/min. Fractions (1 ml) representing 20 mM NaCl increments were collected and 30 μl samples of each fraction were assayed for APP by Western blot with mAb 22C11 according to the method in Bush et al. (1990), modified by using PVDF membranes and by reducing the blocking time to 1 hour. The immunoreactive staining of the 130 kDa APP species seen on the blots was quantified by computer-assisted image capture reflectance densitometry (Bush et al., 1992). The 130 kDa reflectance signals on the blots were expressed as the ratio of the signal generated in one sample lane related to the 130 kDa APP reflectance reading of a sample of starting material present on every individual filter as an internal standard.

APP-degrading protease = test: Assay of APP-degrading protease (Zn^2+-enhanced degradation of plasma 130 kDa APP); assay type: biochemical, human; details: heparin-Sepharose eluates, 37° C.
[3] = molecular target: T2, APP purified from rat brain (Rattus norvegicus, UniProt P08592); test: heparin binding to APP in a Biosensor system
T2 construct: from tissue; host or cells: rat brain
T2 sequence (P08592 18-770): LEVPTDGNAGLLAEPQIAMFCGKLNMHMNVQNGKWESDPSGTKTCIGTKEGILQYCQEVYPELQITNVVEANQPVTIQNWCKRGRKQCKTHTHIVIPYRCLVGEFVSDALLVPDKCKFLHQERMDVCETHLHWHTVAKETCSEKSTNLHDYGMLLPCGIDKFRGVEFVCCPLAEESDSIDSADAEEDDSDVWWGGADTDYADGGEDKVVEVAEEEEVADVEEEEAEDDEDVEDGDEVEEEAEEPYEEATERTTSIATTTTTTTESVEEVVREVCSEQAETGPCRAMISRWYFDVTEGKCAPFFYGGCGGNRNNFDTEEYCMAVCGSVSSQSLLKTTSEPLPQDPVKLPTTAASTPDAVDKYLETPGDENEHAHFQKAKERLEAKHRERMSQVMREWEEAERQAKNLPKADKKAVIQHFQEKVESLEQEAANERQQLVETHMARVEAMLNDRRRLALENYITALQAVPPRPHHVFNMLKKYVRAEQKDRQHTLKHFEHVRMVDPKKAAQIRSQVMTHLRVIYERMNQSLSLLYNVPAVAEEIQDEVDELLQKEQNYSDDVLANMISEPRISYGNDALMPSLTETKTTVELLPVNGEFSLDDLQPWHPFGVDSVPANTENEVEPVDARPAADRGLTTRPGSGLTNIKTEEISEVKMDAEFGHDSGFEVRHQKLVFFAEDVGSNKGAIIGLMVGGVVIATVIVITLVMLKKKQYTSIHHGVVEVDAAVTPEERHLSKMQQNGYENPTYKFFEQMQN
Experimental: The effect of Zn^2+ in modulating heparin binding to APP was also studied in a Biosensor system. […] This effect was most pronounced and most specific for Zn^2+, as opposed to the absence of divalent cations or the presence of Ca^2+, Mg^2+ or Co^2+, and was most evident when the heparin:APP ratio was low. […] Zn^2+ at 50 nM promoted a =170% increase in heparin binding, the effect saturating at 70 μM.

[4] = system: human brain full-length APP; test: ^125I-APP binding to heparin-Sepharose
Experimental: 100 kDa human brian full-length APP was iodinated by the Chloramine-T method. Iodinated APP (^125I-APP) was then separated from labelling reagents by Sephacryl G25 chromatography.
The column was then washed with 6 ml buffer 1 and the APP eluted with aliquots of high-NaCl buffers.

APP = test: Effect of zinc loading upon rat brain APP; assay type: in vivo; details: 120 mg/kg injected daily for four days
Experimental: 16 week old Sprauge-Dawley male rats were injected daily for four days with 120 mg/kg ZnCl2 solution. The animals were then anaesthetized, bled by intracardiac puncture and their brains removed, homogenized and separated into membrane and soluble fractions following ultracentrifugation.

trypsin = test: tryptic activity on fluorogenic substrate Z-F-R-AMC; assay type: biochemical; details: range of doses
PC12 cells = test: Effect of extracellular zinc on cultured PC12 cells (APP by Western blot); assay type: cell-based; details: 48 hr
Experimental: 10^6 PC12 cells were plated for 24 hr in the presence of Dulbecco's modified Eagle's medium (DMEM, N2) supplemented with 8% fetal calf serum (FCS). The medium was then removed and replaced with DMEM±2 to 50 μM ZnCl2 or another salt, and no FCS. Cells and media were harvested 48 hr later and aliquots of media, cell cytosol and membrane (following lysis and ultracentrifugation) were assayed for APP by Western blotting with mAb 22C11.

Structure (SMILES): [Cl-].[Cl-].[Zn+2] [Zn^2+, ZnCl2]
- Zn^2+ concentration that completely abolished the protective effect of heparin ([1]; with heparin (1 μM)): above 1 μM
- effect on rate of APP proteolysis by trypsin ([1]; without heparin, Zn^2+ up to 100 μM, EDTA 1 mM): had no effect
- increase in amount of APP recovered in all fractions ([2]; 50 μM Zn^2+): 48%
- amount of APP recovered in all fractions ([2]; 50 μM Zn^2+ (1110 without)): 1644 reflectance units
- reduction in amount of eluted protein ([2]; 50 μM Zn^2+, protein assay): 13%
- effect on proteolysis of plasma APP (APP-degrading protease): Proteolysis was accelerated
- concentration at which effect on heparin binding saturates [3]: 70 µM
- effect on heparin binding to APP ([3]; 100 μM): strongly promote heparin binding to APP
- increase in heparin binding to rat brain APP ([3]; Zn^2+ at 50 nM): 170%
- concentration at which increase in ^125I-APP binding to heparin reached a plateau [4]: 75 µM
- increase in ^125I-APP recovered from the 50-2000 mM NaCl elution fraction ([4]; 50 μM Zn^2+): approximately 3 fold
- increase in amount of brain APP binding to heparin ([4]; 50 μM Zn^2+): 50%
- increase in ^125I-APP recovered from the 50-2000 mM NaCl elution fraction ([4]; 100 μM Zn^2+): 4.5 fold
- new APP band in plasma (APP): development of a novel 80 kDa band in plasma
- increase in the amounts of all forms of APP (APP; plasma and brain preparations vs litter-mates): 80%
- effect on tryptic activity (trypsin): left tryptic activity unaltered
- increase in APP released into the media (PC12 cells; 2 μM): 50%
- increase in APP released into the media (peak) (PC12 cells; 50 μM): 200%
- cytosolic APP (PC12 cells): Smaller increases in cytosolic APP
- membrane associated APP levels (PC12 cells): no change in membrane associated APP levels
